Test results from PubChem BioAssay AID248 (DTP/NCI, 2004).
“And” between values parts separate entries of the source, which are not always exact repeats. Equal entries are not always repeated. Toxic doses and inconclusive results are not listed.

Test system: L1210 leukemia ip in BDF1 mice, survival T/C
Assay: NCI In Vivo Anticancer Drug Screen. Data for tumor model L1210 Leukemia (intraperitoneal) in B6D2F1 (BDF1) mice
Settings: higher = longer survival
Method in brief: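 Each compound was tested against a transplantable tumor grown in mice. The endpoint was survival, with treated animals benchmarked against vehicle controls as a simple ratio.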

[1] = endpoint: mean survival time, dose: 50.0 mg/kg/injection, schedule: Q04DX003 (ip), vehicle: saline
[2] = endpoint: mean survival time, dose: 100.0 mg/kg/injection, schedule: Q01DX001 (ip), vehicle: saline
[3] = endpoint: mean survival time, dose: 100.0 mg/kg/injection, schedule: Q04DX003 (ip), vehicle: saline
[4] = endpoint: mean survival time, dose: 200.0 mg/kg/injection, schedule: Q01DX001 (ip), vehicle: saline

Structure (SMILES): CCN(CC)CCNc1ccc(CO)c2sc3ccccc3c(=O)c12
- T/C (endpoint: mean survival time, dose: 8.0 mg/kg/injection, schedule: Q01DX009 (ip), vehicle: clinical formulation): 108 % of control
- T/C (endpoint: mean survival time, dose: 8.0 mg/kg/injection, schedule: Q01DX009 (ip), vehicle: water): 106 % of control
- T/C (endpoint: mean survival time, dose: 16.0 mg/kg/injection, schedule: Q01DX009 (ip), vehicle: clinical formulation): 112 % of control
- T/C (endpoint: mean survival time, dose: 16.0 mg/kg/injection, schedule: Q01DX009 (ip), vehicle: water): 92 % of control
- T/C (endpoint: mean survival time, dose: 18.75 mg/kg/injection, schedule: Q01DX009 (ip), vehicle: saline): 118 % of control
- T/C (endpoint: mean survival time, dose: 22.0 mg/kg/injection, schedule: Q01DX009 (ip), vehicle: saline): 115 % of control
- T/C (endpoint: mean survival time, dose: 32.0 mg/kg/injection, schedule: Q01DX009 (ip), vehicle: clinical formulation): 121 % of control
- T/C (endpoint: mean survival time, dose: 32.0 mg/kg/injection, schedule: Q01DX009 (ip), vehicle: water): 117 % of control
- T/C (endpoint: mean survival time, dose: 35.0 mg/kg/injection, schedule: Q01DX009 (ip), vehicle: saline): 123 % of control
- T/C [1]: 90 % of control
- T/C (endpoint: mean survival time, dose: 64.0 mg/kg/injection, schedule: Q01DX009 (ip), vehicle: clinical formulation): 164 % of control
- T/C (endpoint: mean survival time, dose: 64.0 mg/kg/injection, schedule: Q01DX009 (ip), vehicle: water): 157 % of control
- T/C (endpoint: mean survival time, dose: 81.0 mg/kg/injection, schedule: Q01DX009 (ip), vehicle: Klucel (hydroxypropylcellulose) (HPC)): 120 % of control
- T/C [2]: 102 % of control
- T/C [3]: 106 % of control
- T/C (endpoint: mean survival time, dose: 112.0 mg/kg/injection, schedule: Q01DX009 (ip), vehicle: saline): 98 % of control and 105 % of control
- T/C (endpoint: mean survival time, dose: 122.0 mg/kg/injection, schedule: Q01DX009 (ip), vehicle: Klucel (hydroxypropylcellulose) (HPC)): 112 % of control
- T/C (endpoint: mean survival time, dose: 128.0 mg/kg/injection, schedule: Q01DX009 (ip), vehicle: clinical formulation): 91 % of control
- T/C (endpoint: mean survival time, dose: 128.0 mg/kg/injection, schedule: Q01DX009 (ip), vehicle: water): 110 % of control
- T/C (endpoint: mean survival time, dose: 150.0 mg/kg/injection, schedule: Q01DX009 (ip), vehicle: saline): 93 % of control
- T/C [4]: 110 % of control
- T/C (endpoint: mean survival time, dose: 200.0 mg/kg/injection, schedule: Q01DX009 (ip), vehicle: Klucel (hydroxypropylcellulose) (HPC)): 120 % of control
- T/C (endpoint: mean survival time, dose: 200.0 mg/kg/injection, schedule: Q04DX003 (ip), vehicle: saline): 173 % of control
- T/C (endpoint: mean survival time, dose: 264.0 mg/kg/injection, schedule: Q01DX001 (ip), vehicle: carboxymethylcellulose (CMC)): 112 % of control
- T/C (endpoint: mean survival time, dose: 264.0 mg/kg/injection, schedule: Q01DX009 (ip), vehicle: carboxymethylcellulose (CMC)): 124 % of control
- T/C (endpoint: mean survival time, dose: 300.0 mg/kg/injection, schedule: Q04DX003 (ip), vehicle: saline): 184 % of control
- T/C (endpoint: mean survival time, dose: 400.0 mg/kg/injection, schedule: Q01DX001 (ip), vehicle: carboxymethylcellulose (CMC)): 157 % of control
- T/C (endpoint: median survival time, dose: 4.0 mg/kg/injection, schedule: Q01DX009 (ip), vehicle: saline): 90 % of control
- T/C (endpoint: median survival time, dose: 4.0 mg/kg/injection, schedule: Q03HX016 (ip), vehicle: saline): 100 % of control
- T/C (endpoint: median survival time, dose: 4.0 mg/kg/injection, schedule: Q03HX024 (ip), vehicle: saline): 100 % of control
- T/C (endpoint: median survival time, dose: 8.0 mg/kg/injection, schedule: Q01DX009 (ip), vehicle: saline): 100 % of control
- T/C (endpoint: median survival time, dose: 8.0 mg/kg/injection, schedule: Q03HX008 (ip), vehicle: saline): 100 % of control
- T/C (endpoint: median survival time, dose: 8.0 mg/kg/injection, schedule: Q03HX016 (ip), vehicle: saline): 100 % of control
- T/C (endpoint: median survival time, dose: 8.0 mg/kg/injection, schedule: Q03HX024 (ip), vehicle: saline): 105 % of control
- T/C (endpoint: median survival time, dose: 16.0 mg/kg/injection, schedule: Q01DX009 (ip), vehicle: saline): 110 % of control
- T/C (endpoint: median survival time, dose: 16.0 mg/kg/injection, schedule: Q01DX009 (sc), vehicle: saline): 100 % of control
- T/C (endpoint: median survival time, dose: 16.0 mg/kg/injection, schedule: Q03HX008 (ip), vehicle: saline): 110 % of control
- T/C (endpoint: median survival time, dose: 16.0 mg/kg/injection, schedule: Q03HX016 (ip), vehicle: saline): 100 % of control
- T/C (endpoint: median survival time, dose: 32.0 mg/kg/injection, schedule: Q01DX001 (ip), vehicle: saline): 100 % of control
- T/C (endpoint: median survival time, dose: 32.0 mg/kg/injection, schedule: Q01DX009 (oral), vehicle: saline): 100 % of control and 120 % of control
- T/C (endpoint: median survival time, dose: 32.0 mg/kg/injection, schedule: Q01DX009 (sc), vehicle: saline): 115 % of control
- T/C (endpoint: median survival time, dose: 32.0 mg/kg/injection, schedule: Q04DX003 (ip), vehicle: saline): 100 % of control
- T/C (endpoint: median survival time, dose: 32.0 mg/kg/injection, schedule: Q08DX002 (ip), vehicle: saline): 100 % of control
- T/C (endpoint: median survival time, dose: 64.0 mg/kg/injection, schedule: Q01DX001 (ip), vehicle: saline): 100 % of control
- T/C (endpoint: median survival time, dose: 64.0 mg/kg/injection, schedule: Q01DX001 (sc), vehicle: saline): 100 % of control
- T/C (endpoint: median survival time, dose: 64.0 mg/kg/injection, schedule: Q01DX009 (oral), vehicle: saline): 115 % of control
- T/C (endpoint: median survival time, dose: 64.0 mg/kg/injection, schedule: Q04DX003 (ip), vehicle: saline): 110 % of control
- T/C (endpoint: median survival time, dose: 64.0 mg/kg/injection, schedule: Q08DX002 (ip), vehicle: saline): 100 % of control
- T/C (endpoint: median survival time, dose: 128.0 mg/kg/injection, schedule: Q01DX001 (ip), vehicle: saline): 110 % of control
- T/C (endpoint: median survival time, dose: 128.0 mg/kg/injection, schedule: Q01DX001 (sc), vehicle: saline): 105 % of control
- T/C (endpoint: median survival time, dose: 128.0 mg/kg/injection, schedule: Q01DX009 (oral), vehicle: saline): 120 % of control
- T/C (endpoint: median survival time, dose: 128.0 mg/kg/injection, schedule: Q01DX009 (sc), vehicle: saline): 95 % of control
- T/C (endpoint: median survival time, dose: 256.0 mg/kg/injection, schedule: Q01DX001 (oral), vehicle: saline): 110 % of control and 120 % of control
- T/C (endpoint: median survival time, dose: 256.0 mg/kg/injection, schedule: Q01DX009 (oral), vehicle: saline): 100 % of control
- T/C (endpoint: median survival time, dose: 512.0 mg/kg/injection, schedule: Q01DX001 (oral), vehicle: saline): 110 % of control and 120 % of control

Structure (SMILES): CCCC(C)c1ccc(N=NC2C(=O)c3ccccc3C2=O)cc1 (stereo not drawn)
- T/C (endpoint: mean survival time, dose: 50.0 mg/kg/injection, schedule: Q01DX001 (ip), vehicle: saline): 100 % of control
- T/C [2]: 94 % of control
- T/C [4]: 94 % of control
- T/C (endpoint: mean survival time, dose: 400.0 mg/kg/injection, schedule: Q01DX001 (ip), vehicle: saline): 103 % of control

Structure (SMILES): O=C1c2cccc([N+](=O)[O-])c2C(=O)N1CCl
- T/C (endpoint: mean survival time, dose: 100.0 mg/kg/injection, schedule: Q01DX001 (ip), vehicle: steriod suspending solution): 97 % of control
- T/C (endpoint: mean survival time, dose: 200.0 mg/kg/injection, schedule: Q01DX001 (ip), vehicle: steriod suspending solution): 105 % of control

Structure (SMILES): CN(C)C(=S)N1C(=O)C2C3CCC(O3)C2C1=O (stereo not drawn)
- T/C (endpoint: mean survival time, dose: 3.13 mg/kg/injection, schedule: Q01DX009 (ip), vehicle: saline with Tween-80): 102 % of control
- T/C (endpoint: mean survival time, dose: 6.25 mg/kg/injection, schedule: Q01DX009 (ip), vehicle: saline with Tween-80): 98 % of control
- T/C (endpoint: mean survival time, dose: 6.25 mg/kg/injection, schedule: Q04DX002 (ip), vehicle: saline with Tween-80): 106 % of control
- T/C (endpoint: mean survival time, dose: 12.5 mg/kg/injection, schedule: Q04DX002 (ip), vehicle: saline with Tween-80): 87 % of control

Structure (SMILES): CNc1ccccc1C(=O)N/N=C/c1ccc(O)c(OC)c1
- T/C (endpoint: mean survival time, dose: 100.0 mg/kg/injection, schedule: Q04DX002 (ip), vehicle: Klucel (hydroxypropylcellulose) (HPC)): 99 % of control
- T/C (endpoint: mean survival time, dose: 200.0 mg/kg/injection, schedule: Q04DX002 (ip), vehicle: Klucel (hydroxypropylcellulose) (HPC)): 93 % of control
- T/C (endpoint: mean survival time, dose: 400.0 mg/kg/injection, schedule: Q04DX002 (ip), vehicle: Klucel (hydroxypropylcellulose) (HPC)): 96 % of control

Structure (SMILES): CCSc1ccc2c(c1)N(CCCN1CCN(C)CC1)c1ccccc1S2
- T/C (endpoint: mean survival time, dose: 3.12 mg/kg/injection, schedule: Q01DX009 (ip), vehicle: saline): 110 % of control
- T/C (endpoint: mean survival time, dose: 6.25 mg/kg/injection, schedule: Q01DX009 (ip), vehicle: saline): 107 % of control
- T/C (endpoint: mean survival time, dose: 6.25 mg/kg/injection, schedule: Q04DX003 (ip), vehicle: saline): 93 % of control
- T/C (endpoint: mean survival time, dose: 12.5 mg/kg/injection, schedule: Q01DX009 (ip), vehicle: saline): 100 % of control
- T/C (endpoint: mean survival time, dose: 12.5 mg/kg/injection, schedule: Q04DX003 (ip), vehicle: saline): 100 % of control and 101 % of control
- T/C (endpoint: mean survival time, dose: 25.0 mg/kg/injection, schedule: Q01DX009 (ip), vehicle: saline): 113 % of control
- T/C (endpoint: mean survival time, dose: 25.0 mg/kg/injection, schedule: Q04DX003 (ip), vehicle: saline): 96 % of control and 97 % of control and 103 % of control
- T/C (endpoint: mean survival time, dose: 50.0 mg/kg/injection, schedule: Q01DX009 (ip), vehicle: saline): 98 % of control
- T/C [1]: 100 % of control and 110 % of control
- T/C [3]: 114 % of control and 104 % of control and 110 % of control
